In patent publication US20100267561A1, “HERBICIDAL PYRIDAZINONE DERIVATIVES” (priority 2007, published 2010):

Tests used:
Assay in all cases: Test E pre-/postemergence plant response
Type in all cases: in vivo
[1] = tested on: barnyardgrass (Echinochloa crus-galli); conditions: scale 0 to 100
Method in brief: (§1)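 Formulated in a non-phytotoxic solvent mixture containing surfactant, compound was applied to soil at planting or sprayed on emerged plants at the 1- to 4-leaf stage. Visual comparison with controls followed 14 to 21 days in the greenhouse; 0 = no effect, 100 = complete control.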

[2] = tested on: broadleaf signalgrass (Brachiaria platyphylla); conditions: scale 0 to 100
Method in brief: as §1

[3] = tested on: common chickweed (Stellaria media); conditions: Postemergence, scale 0 to 100
Method in brief: as §1

[4] = tested on: dallisgrass (Paspalum dilatatum); conditions: scale 0 to 100
Method in brief: as §1

[5] = tested on: large crabgrass (Digitaria sanguinalis); conditions: scale 0 to 100
Method in brief: as §1

[6] = tested on: naked crabgrass (Digitaria nuda); conditions: scale 0 to 100
Method in brief: as §1

[7] = tested on: tropical (T.) spiderwort (Commelina benghalensis); conditions: scale 0 to 100
Method in brief: as §1

Cc1cc(-c2ccc(Cl)cc2)nn1-c1c(OS(=O)(=O)c2ccccc2)cnn(C)c1=O [Compound 35]
Plant response rating, Barnyardgrass ([1]; 8 g ai/ha, Preemergence): 40
Plant response rating, Barnyardgrass ([1]; 16 g ai/ha, Preemergence): 80
Plant response rating, Barnyardgrass ([1]; 31 g ai/ha, Preemergence): 95
Plant response rating, Barnyardgrass ([1]; 62 g ai/ha, Preemergence): 100
Plant response rating, Barnyardgrass ([1]; Postemergence, 8 g ai/ha): 60
Plant response rating, Barnyardgrass ([1]; Postemergence, 16 g ai/ha): 75
Plant response rating, Barnyardgrass ([1]; Postemergence, 31 g ai/ha): 100
Plant response rating, Barnyardgrass ([1]; Postemergence, 62 g ai/ha): 100
Plant response rating, Signalgrass ([2]; 16 g ai/ha, Preemergence): 80
Plant response rating, Signalgrass ([2]; 31 g ai/ha, Preemergence): 100
Plant response rating, Signalgrass ([2]; 62 g ai/ha, Preemergence): 100
Plant response rating, Signalgrass ([2]; Postemergence, 8 g ai/ha): 60
Plant response rating, Signalgrass ([2]; Postemergence, 16 g ai/ha): 70
Plant response rating, Signalgrass ([2]; Postemergence, 31 g ai/ha): 75
Plant response rating, Signalgrass ([2]; Postemergence, 62 g ai/ha): 100
Plant response rating, Chickweed ([3]; 8 g ai/ha): 0
Plant response rating, Chickweed ([3]; 16 g ai/ha): 0
Plant response rating, Chickweed ([3]; 31 g ai/ha): 0
Plant response rating, Dallisgrass ([4]; 8 g ai/ha, Preemergence): 0
Plant response rating, Dallisgrass ([4]; 16 g ai/ha, Preemergence): 40
Plant response rating, Dallisgrass ([4]; 31 g ai/ha, Preemergence): 90
Plant response rating, Dallisgrass ([4]; 62 g ai/ha, Preemergence): 90
Plant response rating, Dallisgrass ([4]; Postemergence, 8 g ai/ha): 30
Plant response rating, Dallisgrass ([4]; Postemergence, 16 g ai/ha): 30
Plant response rating, Dallisgrass ([4]; Postemergence, 31 g ai/ha): 50
Plant response rating, Dallisgrass ([4]; Postemergence, 62 g ai/ha): 60
Plant response rating, Crabgrass, Large ([5]; 8 g ai/ha, Preemergence): 20
Plant response rating, Crabgrass, Large ([5]; 16 g ai/ha, Preemergence): 20
Plant response rating, Crabgrass, Large ([5]; 31 g ai/ha, Preemergence): 95
Plant response rating, Crabgrass, Large ([5]; 62 g ai/ha, Preemergence): 100
Plant response rating, Crabgrass, Large ([5]; Postemergence, 8 g ai/ha): 50
Plant response rating, Crabgrass, Large ([5]; Postemergence, 16 g ai/ha): 60
Plant response rating, Crabgrass, Large ([5]; Postemergence, 31 g ai/ha): 75
Plant response rating, Crabgrass, Large ([5]; Postemergence, 62 g ai/ha): 80
Plant response rating, Crabgrass, Naked ([6]; 8 g ai/ha, Preemergence): 75
Plant response rating, Crabgrass, Naked ([6]; 16 g ai/ha, Preemergence): 98
Plant response rating, Crabgrass, Naked ([6]; 31 g ai/ha, Preemergence): 100
Plant response rating, Crabgrass, Naked ([6]; 62 g ai/ha, Preemergence): 100
Plant response rating, Crabgrass, Naked ([6]; Postemergence, 8 g ai/ha): 50
Plant response rating, Crabgrass, Naked ([6]; Postemergence, 16 g ai/ha): 50
Plant response rating, Crabgrass, Naked ([6]; Postemergence, 31 g ai/ha): 95
Plant response rating, Crabgrass, Naked ([6]; Postemergence, 62 g ai/ha): 95
Plant response rating, Spiderwort, T. ([7]; 16 g ai/ha, Preemergence): 0
Plant response rating, Spiderwort, T. ([7]; 31 g ai/ha, Preemergence): 0
Plant response rating, Spiderwort, T. ([7]; 62 g ai/ha, Preemergence): 0
Plant response rating, Spiderwort, T. ([7]; Postemergence, 8 g ai/ha): 0
Plant response rating, Spiderwort, T. ([7]; Postemergence, 16 g ai/ha): 0
Plant response rating, Spiderwort, T. ([7]; Postemergence, 31 g ai/ha): 0
Plant response rating, Spiderwort, T. ([7]; Postemergence, 62 g ai/ha): 0
